According to publication PMC10663510 (Scientific Reports, 2023):

T1: MSMEG-3765 (TetR-like repressor) (Mycolicibacterium (Mycobacterium) smegmatis mc2 155?), ORF:4079dac7
T1 sequence: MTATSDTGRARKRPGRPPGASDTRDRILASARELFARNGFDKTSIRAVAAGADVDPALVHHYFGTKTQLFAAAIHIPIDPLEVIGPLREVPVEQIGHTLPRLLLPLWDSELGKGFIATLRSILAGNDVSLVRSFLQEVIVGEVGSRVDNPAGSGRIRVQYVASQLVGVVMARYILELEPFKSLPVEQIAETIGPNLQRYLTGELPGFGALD

B1: TetR-like MSMEG-3765 repressor (natural protein)
chain: T1 sequence
notes: also called MSMEG-3765 TetR recombinant protein; TetR-like MSMEG-3765 protein

Key:
[1] = target: T2, MSMEG-3765 (TetR-like repressor) (Mycolicibacterium smegmatis, UniProt A0QYS0); assay: EMSA, release of […] bp operator DNA; format: binding; conditions: 0.2 pmol DNA, 4 pmol protein, 400 or 4000 pmol drug in 20 ul; 20 mM HEPES pH 8.0, 75 mM NaCl, 10 mM MgCl2, 30 °C
T2 construct: gene MSMEG_3765; homodimer; 211 residues per chain in model

[2] = system: T1, MSMEG-3765 (TetR-like repressor) (Mycolicibacterium (Mycobacterium) smegmatis mc2 155?), ORF:4079dac7; assay: EMSA; conditions: 20 mM HEPES pH 8.0, 75 mM NaCl, 10 mM MgCl2, 5% glycerol; 20 ul, 30 C 10 min; native 8% PAGE at 4 C
[3] = target: the molecule itself; assay: circular dichroism (spectrum and thermal unfolding) compared with data back-calculated from monomer and dimer models; MSMEG-3765 in 20 mM Tris HCl, 500 mM NaCl, pH 8; CD spectra 200-260 nm at 5-85 °C; melting temperature and spectrum compared with predictions (SCooP, PDBMD2CD) from predicted monomeric and dimeric structures

Molecule | EMSA, release of 133 bp operator DNA [1] | also measured
O=C(O)c1cn(C2CC2)c2cc(N3CCNCC3)c(F)cc2c1=O [ciprofloxacin] | rifampicin or ciprofloxacin are able to directly interfear with the binding of the MSMEG-3765 TetR | 
CO[C@H]1/C=C/O[C@@]2(C)Oc3c(C)c(O)c4c(O)c(c(/C=N/N5CCN(C)CC5)c(O)c4c3C2=O)NC(=O)/C(C)=C\C=C\[C@H](C)[C@H](O)[C@@H](C)[C@@H](O)[C@@H](C)[C@H](OC(C)=O)[C@@H]1C [rifampicin] | rifampicin or ciprofloxacin are able to directly interfear with the binding of the MSMEG-3765 TetR | 
CTGCTGGAGTCCGCCGCCTGAGCCAGGCGTCGCCGACGCCGAAATGTGTCGACGCATCGTCTTCCCACCGGACGACGGCAGGCCTAGAATTCATTGCATGATGACTTCATCGCGCGATGAATTGTCAGCGACGGGGCCCG (double strand) [133 bp MSMEG_3762 upstream operator fragment] |  | binding [2]: binds
B1 |  | binding result [3]: binds
